According to patent US20250019385A1, “SPIROCYCLIC ANNULATED 2-AMINO-3-CYANO THIOPHENES AND DERIVATIVES FOR THE TREATMENT OF CANCER” (Boehringer Ingelheim International GmbH, priority 2023, published 2025):

Assays:
[1] = biological target: KRAS (G12C)::SOS1 protein-protein interaction (Homo sapiens (Human), UniProt P01116, C118S/C51S/C80L/G12C); experiment: KRAS::SOS1 AlphaScreen binding assay (KRAS G12C); settings: GDP
From the text: This assay can be used to examine the potency with which compounds according to the invention binding to (mutated) KRAS inhibit the protein-protein interaction between SOS1 and (mutated) KRAS e.g. KRAS G12C, KRAS G12D. […] Low IC50 values in this assay setting are indicative of strong inhibition of protein-protein interaction between SOS1 and KRAS:
These assays measure the inhibitory effect of compounds on KRAS mutant protein-protein interactions using the Alpha Screen technology by Perkin Elmer.
The following (mutant) enzyme forms of KRAS and interacting proteins are used in these assays at the given concentrations:
KRAS (G12C) 1-169, N-terminal 6His-tag for purification, cleaved off, C-terminal avi-tag, biotinylated, mutations: C51S, C80L, C118S (in house); final assay concentration 7.5 nM and SOS1 564-1049, N-terminal 229 GST-tag, TEV cleavage site (Viva Biotech Ltd); final assay concentration 5 nM;
Test compounds dissolved in DMSO are dispensed onto assay plates (Proxiplate 384 PLUS, white, PerkinElmer; 6008289) using an Access Labcyte Workstation with the Labcyte Echo 55x. For the chosen highest assay concentration of 100 μM, 150 nL of compound solution are transferred from a 10 mM DMSO compound stock solution. A series of eleven fivefold dilutions per compound are transferred to the assay plate, compound dilutions are tested in duplicates. DMSO are added as backfill to a total volume of 150 nL.
The assays run on a fully automated robotic system in a darkened room below 100 Lux. To 150 nl of compound dilution 10 μl of a mix including KRAS mutant protein, SOS1 (final assay concentrations see above) and GDP nucleotide (Sigma G7127; final assay concentration 10 μM) in assay buffer (1×PBS, 0.1% BSA, 0.05% Tween 20) are added into columns 1-24.
After 30 minutes incubation time 5 μl of Alpha Screen bead mix in assay buffer are added into columns 1-23. Bead mix consists of AlphaLISA Glutathione Acceptor Beads (PerkinElmer, Cat No AL109) and AlphaScreen Streptavidin Donor Beads (PerkinElmer Cat No 6760002) in assay buffer at a final assay concentration of 10 μg/mL each.
Plates are kept at room temperature in a darkened incubator. After an additional 60 minutes incubation time the signal is measured in a PerkinElmer Envision HTS Multilabel Reader using the AlphaScreen specs from PerkinElmer.
Each plate contains up to 16 wells of a negative control depending on the dilution procedure (platewise or serial) (DMSO instead of test compound; with KRAS mutant::SOS1 GOP mix and bead mix; column 23) and 16 wells of a positive control (DMSO instead of test compound; with KRAS mutant::SOS1 GOP mix w/o bead mix; column 24).
As internal control known inhibitors of KRAS mutant::SOS1 interaction can be measured on each compound plate.
IC50 values are calculated and analyzed with Boehringer Ingelheim's MEGALAB C50 application using a 4 parametric logistic model.
Tables of example compounds disclosed herein contain IC50 values determined using the above assays (see Table 43).

[2] = Metabolic (microsomal) stability assay, human liver microsomes (HLM); type: in vitro ADME; settings: 1 μM test compound, predicted clearance as percent of liver blood flow

Chain of KRAS (G12C)::SOS1 protein-protein interaction (P01116 other isoform, or with tags, fused parts or gaps G12C/C51S/C80L/C118S): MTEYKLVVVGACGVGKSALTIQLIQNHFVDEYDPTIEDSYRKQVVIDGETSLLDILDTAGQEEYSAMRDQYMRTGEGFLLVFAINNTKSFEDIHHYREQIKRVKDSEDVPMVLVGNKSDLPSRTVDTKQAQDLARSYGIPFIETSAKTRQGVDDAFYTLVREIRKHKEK

Compound: C[C@H](Oc1nc(-c2noc3c2CCC[C@@]32CCCc3sc(N)c(C#N)c32)nc2c1CN(c1ncccn1)[C@]21CCOC1)[C@@H]1CCCN1C [II-7a]
- IC50 [1]: 2 nM
- HLM QH [2]: <24%

Compound: C[C@H](Oc1nc(-c2noc3c2CCC[C@@]32CCCc3sc(N)c(C#N)c32)nc2c1CN(c1ncccn1)[C@@]21CCOC1)[C@@H]1CCCN1C [II-7b]
- IC50 [1]: 3 nM
- HLM QH [2]: <24%

Compound: C[C@H](Oc1nc(-c2noc3c2CCC[C@@]32CCCc3sc(N)c(C#N)c32)nc2c1COC[C@]21CCOC1)[C@@H]1CCCN1C [II-8]
- IC50 [1]: 1 nM
- HLM QH [2]: 46%

Compound: C[C@H](Oc1nc(-c2noc3c2CCC[C@@]32CCCc3sc(N)c(C#N)c32)nc2c1COC[C@@]21CCOC1)[C@@H]1CCCN1C [II-9a]
- IC50 [1]: 2 nM
- HLM QH [2]: 29%

Compound: C[C@H](Oc1nc(-c2noc3c2CCC[C@@]32CCCc3sc(N)c(C#N)c32)nc2c1CCO[C@]21CCOC1)[C@@H]1CCCN1C [II-9b]
- IC50 [1]: 1 nM
- HLM QH [2]: 33%

Compound: C[C@H](Oc1nc(-c2noc3c2CCC[C@@]32CCCc3sc(N)c(C#N)c32)nc2c1CCCO[C@]21CCOC1)[C@@H]1CCCN1C [II-10]
- IC50 [1]: 1 nM
- HLM QH [2]: 47%

Compound: CO[C@@H]1C[C@@H]([C@H](C)Oc2nc(-c3noc4c3CCC[C@@]43CCCc4sc(N)c(C#N)c43)nc3c2COC[C@]32CCOC2)N(C)C1 [II-11]
- IC50 [1]: 2 nM
- HLM QH [2]: 64%

Compound: C[C@H](Oc1nc(-c2noc3c2CCC[C@@]32CCCc3sc(N)c(C#N)c32)nc2c1CNC[C@]21CCOC1)[C@@H]1CCCN1C [II-15]
- IC50 [1]: 2 nM
- HLM QH [2]: 63%

Compound: C[C@H](Oc1nc(-c2noc3c2CCC[C@@]32CCCc3sc(N)c(C#N)c32)nc2c1CCC21CCOC1)[C@@H]1CCCN1C (some centres unmarked) [II-18]
- IC50 [1]: 3 nM
- HLM QH [2]: 36%

Compound: C[C@H](Oc1nc(-c2noc3c2CCC[C@@]32CCCc3sc(N)c(C#N)c32)nc2c1CC[C@]21CNCCO1)[C@@H]1C[C@@H](F)CN1C [II-20]
- IC50 [1]: 2 nM
- HLM QH [2]: 36%
